From US20250179051A1, “PYRIMIDINLY-OXY-QUINOLINE BASED HERBICIDAL COMPOUNDS” (SYNGENTA CROP PROTECTION AG, priority 2022, published 2025)

Experiments:
Format in all cases: in vivo
Conditions in all cases: 250 g/ha, evaluated after 13 days, five-point scale
[1] = system: Amaranthus retoflexus (AMARE); assay: Post-emergence herbicide glasshouse test
Experimental: (§1) Seeds of a variety of test species are sown in standard soil in pots Amaranthus retoflexus (AMARE), Amaranthus palmeri (AMAPA), Echinochloa crus-galli (ECHCG), Ipomoea hederacea (IPOHE), Setaria faberi (SETFA). After cultivation for one day (pre-emergence) or after 8 days cultivation (post-emergence) under controlled conditions in a glasshouse (at 24/16° C., day/night; 14 hours light; 65% humidity), the plants are sprayed with an aqueous spray solution derived from the formulation of the technical active ingredient in acetone/water (50:50) solution containing 0.5% Tween 20 (polyoxyethelyene sorbitan monolaurate, CAS RN 9005-64-5). Compounds are applied at 250 g/ha unless otherwise stated. The test plants are then grown in a glasshouse under controlled conditions in a glasshouse (at 24/16° C., day/night; 14 hours light; 65% humidity) and watered twice daily. After 13 days for pre and post-emergence, the test is evaluated for the percentage damage caused to the plant. The biological activities are shown in the following table on a five-point scale (5=81-100%; 4=61-80%; 3=41-60%; 2=21-40%; 1=0-20%).

[2] = system: Ipomoea hederacea (IPOHE); assay: Post-emergence herbicide glasshouse test
Experimental: as §1

[3] = system: Amaranthus palmeri (AMAPA); assay: Post-emergence herbicide glasshouse test
Experimental: as §1

[4] = system: Echinochloa crus-galli (ECHCG); assay: Post-emergence herbicide glasshouse test
Experimental: as §1

Setaria faberi (SETFA) [5] = assay: Post-emergence herbicide glasshouse test
Experimental: as §1

[6] = system: Amaranthus retoflexus (AMARE); assay: Pre-emergence herbicide glasshouse test
Experimental: as §1

[7] = system: Ipomoea hederacea (IPOHE); assay: Pre-emergence herbicide glasshouse test
Experimental: as §1

[8] = system: Amaranthus palmeri (AMAPA); assay: Pre-emergence herbicide glasshouse test
Experimental: as §1

[9] = system: Echinochloa crus-galli (ECHCG); assay: Pre-emergence herbicide glasshouse test
Experimental: as §1

Setaria faberi (SETFA) [10] = assay: Pre-emergence herbicide glasshouse test
Experimental: as §1

| Compound | percentage damage caused to the plant, AMARE [1] | percentage damage caused to the plant, IPOHE [2] | percentage damage caused to the plant, AMAPA [3] | percentage damage caused to the plant, ECHCG [4] | percentage damage caused to the plant, SETFA (Setaria faberi (SETFA) [5]) | percentage damage caused to the plant, AMARE [6] | percentage damage caused to the plant, IPOHE [7] | percentage damage caused to the plant, AMAPA [8] | percentage damage caused to the plant, ECHCG [9] | percentage damage caused to the plant, SETFA (Setaria faberi (SETFA) [10]) |
| --- | --- | --- | --- | --- | --- | --- | --- | --- | --- | --- |
| CC(Br)c1nc(C(F)(F)F)nc2cccc(Oc3ncc(Cl)cn3)c12 (stereo not shown) [Compound 1.001, 4-(1-bromoethyl)-5-(5-chloropyrimidin-2-yl)oxy-2-(trifluoromethyl)quinazoline] | 3 (3=41-60%) | 3 (3=41-60%) | 3 (3=41-60%) | 1 (1=0-20%) | 1 (1=0-20%) | 2 (2=21-40%) | 1 (1=0-20%) | 3 (3=41-60%) | 1 (1=0-20%) | 2 (2=21-40%) |
| CC(=NOCC1CC1)c1nc(C(F)(F)F)nc2cccc(Oc3ncc(Cl)cn3)c12 [Compound 1.003] | 1 (1=0-20%) | 1 (1=0-20%) | 1 (1=0-20%) | 1 (1=0-20%) | 1 (1=0-20%) | 1 (1=0-20%) | 1 (1=0-20%) | 1 (1=0-20%) | 1 (1=0-20%) | 1 (1=0-20%) |
| FC(F)(F)c1nc(CCC=NOCC2CC2)c2c(Oc3ncc(Cl)cn3)cccc2n1 [Compound 1.005] | 4 (4=61-80%) | 2 (2=21-40%) | 5 (5=81-100%) | 4 (4=61-80%) | 4 (4=61-80%) | 3 (3=41-60%) | 1 (1=0-20%) | 5 (5=81-100%) | 4 (4=61-80%) | 5 (5=81-100%) |
| CCON=CCc1nc(C(F)(F)F)nc2cccc(Oc3ncc(Cl)cn3)c12 [Compound 1.006] | 3 (3=41-60%) | 1 (1=0-20%) | 2 (2=21-40%) | 1 (1=0-20%) | 1 (1=0-20%) | 1 (1=0-20%) | 1 (1=0-20%) | 3 (3=41-60%) | 1 (1=0-20%) | 1 (1=0-20%) |
| CON=CCc1nc(C(F)(F)F)nc2cccc(Oc3ncc(Cl)cn3)c12 [Compound 1.007] | 2 (2=21-40%) | 1 (1=0-20%) | 2 (2=21-40%) | 1 (1=0-20%) | 1 (1=0-20%) | 1 (1=0-20%) | 1 (1=0-20%) | 1 (1=0-20%) | 1 (1=0-20%) | 1 (1=0-20%) |
| FC(F)(F)c1nc(CC=NOCC2CC2)c2c(Oc3ncc(Cl)cn3)cccc2n1 [Compound 1.008, 2-[5-(5-chloropyrimidin-2-yl)oxy-2-(trifluoromethyl)quinazolin-4-yl]-N-(cyclopropylmethoxy) ethanimine] | 4 (4=61-80%) | 1 (1=0-20%) | 4 (4=61-80%) | 2 (2=21-40%) | 1 (1=0-20%) | 1 (1=0-20%) | 1 (1=0-20%) | 2 (2=21-40%) | 1 (1=0-20%) | 1 (1=0-20%) |
| Fc1ccc(-c2nc(C(F)(F)F)nc3cccc(Oc4ncc(Cl)cc4F)c23)cc1 [Compound 1.040] | 2 (2=21-40%) | 2 (2=21-40%) | – | 1 (1=0-20%) | 1 (1=0-20%) | 1 (1=0-20%) | 1 (1=0-20%) | – | 1 (1=0-20%) | 1 (1=0-20%) |
| Fc1ccc(-c2nc(C(F)(F)F)nc3cccc(Oc4ncc(Cl)cn4)c23)cc1 [Compound 1.042] | 3 (3=41-60%) | 3 (3=41-60%) | – | 1 (1=0-20%) | 1 (1=0-20%) | 1 (1=0-20%) | 1 (1=0-20%) | – | 1 (1=0-20%) | 1 (1=0-20%) |
| C=CCCc1nc(C(F)(F)F)nc2cccc(Oc3ncc(Cl)cn3)c12 [Compound 1.043, 4-but-3-enyl-5-(5-chloropyrimidin-2-yl)oxy-2-(trifluoromethyl)quinazoline] | 5 (5=81-100%) | 3 (3=41-60%) | – | 4 (4=61-80%) | 4 (4=61-80%) | 4 (4=61-80%) | 1 (1=0-20%) | – | 5 (5=81-100%) | 5 (5=81-100%) |
| FC(F)(F)c1nc(CCC2CCOCC2)c2c(Oc3ncc(Cl)cn3)cccc2n1 [Compound 1.044] | 5 (5=81-100%) | 4 (4=61-80%) | – | 5 (5=81-100%) | 5 (5=81-100%) | 5 (5=81-100%) | 5 (5=81-100%) | – | 5 (5=81-100%) | 5 (5=81-100%) |
| N#CCCc1nc(C(F)(F)F)nc2cccc(Oc3ncc(Cl)cn3)c12 [Compound 1.046, 3-[5-(5-chloropyrimidin-2-yl)oxy-2-(trifluoromethyl)quinazolin-4-yl]propanenitrile] | – | 4 (4=61-80%) | 5 (5=81-100%) | 2 (2=21-40%) | 2 (2=21-40%) | 5 (5=81-100%) | 5 (5=81-100%) | 5 (5=81-100%) | 5 (5=81-100%) | 5 (5=81-100%) |
| Fc1cnc(Oc2cccc3nc(C(F)(F)F)nc(CCC4CC4)c23)nc1 [Compound 1.064] | 5 (5=81-100%) | 4 (4=61-80%) | 4 (4=61-80%) | 4 (4=61-80%) | – | 5 (5=81-100%) | 5 (5=81-100%) | 5 (5=81-100%) | 4 (4=61-80%) | – |
